Data taken from US9642922B2, “Caspase-triggered nano-aggregation probes and methods of use” (The Board of Trustees of the Leland Stanford Junior …, priority 2013, dated 2017).
Numbered stars: 1 amine (or outer) side, 2 acyl side, 3 side chain; on linkers, the order of the positions; unused ones are H or OH. Square brackets hold non-standard residues; d marks the D form. Peptide text beside a SMILES is read from it. * marks the point of attachment. DOTA = O=C(O)CN1CCN(CC(=O)O)CCN(CC(=O)*)CCN(CC(=O)O)CC1; X1 = O=C(C1CSC(c2nc3ccc(N[*:1])cc3s2)=N1)[*:2]; X2 = N#Cc1ccc2cc(OCCCN*)ccc2n1; SEt = CCS*

Columns and labels:
caspase-3 [1] = target: T1, caspase-3 (Homo sapiens, UniProt P42574); experiment: HPLC assay of caspase-3-triggered macrocyclization of C-SNAF; assay type: biochemical; design: purchased Sigma; host or cells: E. coli; conditions: probe 25 μM, caspase-3, 6 h
T1 sequence (P42574 29-175 limits assumed): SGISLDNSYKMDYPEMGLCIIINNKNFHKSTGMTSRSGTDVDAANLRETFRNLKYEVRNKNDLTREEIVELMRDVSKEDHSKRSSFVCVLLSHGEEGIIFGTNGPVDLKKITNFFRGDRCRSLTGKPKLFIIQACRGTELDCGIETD
T1 sequence (P42574 176-277 limits assumed): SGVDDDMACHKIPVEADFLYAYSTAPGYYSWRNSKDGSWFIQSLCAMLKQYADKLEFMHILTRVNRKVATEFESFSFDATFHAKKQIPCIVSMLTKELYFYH
Experimental: The progression of caspase-3-triggered macrocyclization of C-SNAF to form C-SNAF-cycl in solution was monitored using high-performance liquid chromatography (HPLC) following incubation of the probe (25 μM) with recombinant human caspase-3 (4.9×10^−[…]).
Caspase (human, recombinant from E. coli) assays were performed for caspase-3 (4.9×10^−3 U; 7.35×10^−4 mg, Sigma), −7 (18.3 U; 7.35×10^−4 mg, Calbiochem), and −9 (0.3 U; 7.35×10^−4 mg, Calbiochem). All caspase assays were conducted in caspase buffer with 50 mM HEPES, 100 mM NaCl, 1 mM EDTA, 10 mM TCEP, 10% glycerol, and 0.1% CHAPS at pH 7.4. Cathepsin B (human liver; 0.27 U; 7.35×10^−4 mg, Calbiochem) and Legumain (human, recombinant from mouse myeloma cell line; >250 pmol/min/μg; 7.35×10^−4 mg, R&D Systems) were conducted in reaction buffer with 50 mM sodium acetate, 50 mM NaCl, 0.5 mM EDTA and 10 mM TCEP at pH 5.5. C-SNAF was diluted in the respective enzyme reaction buffer (25 μM, 1 mL) and remained at room temperature for 10 min, to which was then added the respective enzymes. Reactions were performed at 37° C., and monitored by HPLC hourly. The percentage conversion of the reaction was calculated based on the percentage of peak area of C-SNAF-cycl in the HPLC trace at 675 nm UV detection, which indicated the efficacy of enzyme cleavage of C-SNAF.

caspase-3 [2] = target: T1, caspase-3; experiment: T1 measurement of probe 15 with caspase-3; assay type: biochemical; design: purchased Sigma; host or cells: E. coli; conditions: probe 200 μM
Experimental: The enzyme specificity of probe 15 was studied by measuring the T1 value resulting from probe incubation (208 μM) with any of five relevant subcellular proteases (caspase-3, -7, -9, cathepsin B and legumain) in enzyme buffer. […] The reduced T1 value in solution was inhibited by the caspase inhibitor Z-VAD-fmk (50 μM).
Caspase (human, recombinant from E. coli) assays were performed for caspase-3 (4.9×10^−3 U; 7.35×10^−4 mg, Sigma), −7 (18.3 U; 7.35×10^−4 mg, Calbiochem), and −9 (0.3 U; 7.35×10^−4 mg, Calbiochem). All caspase assays were conducted in caspase buffer with 50 mM HEPES, 100 mM NaCl, 1 mM EDTA, 10 mM TCEP, 10% glycerol, and 0.1% CHAPS at pH 7.4.

CCSSC[C@@H](NC(=O)[C@H](CC(=O)O)NC(=O)[C@@H](NC(=O)[C@H](CCC(=O)O)NC(=O)[C@H](CC(=O)O)NC(C)=O)C(C)C)C(=O)N[C@@H](CCCCNC(=O)CCCCCN1C(=CC=CC=CC2=[N+](CC)c3ccc4c(S(=O)(=O)[O-])cc(S(=O)(=O)O)cc4c3C2(C)C)C(C)(C)c2c1ccc1c(S(=O)(=O)O)cc(S(=O)(=O)O)cc21)C(=O)Nc1ccc2nc(C3=N[C@@H](C(=O)NCCCOc4ccc5nc(C#N)ccc5c4)CS3)sc2c1 [C-SNAF]
conversion to C-SNAF-cycl after 6 h (caspase-3 [1]): almost completely converted to C-SNAF-cycl

CCSSCC(NC(=O)C(CC(=O)O)NC(=O)C(NC(=O)C(CCC(=O)O)NC(=O)C(CC(=O)O)NC(C)=O)C(C)C)C(=O)NC(CCCCNC(=O)CN1CCN(CC(=O)[O-])CCN(CC(=O)[O-])CCN(CC(=O)[O-])CC1)C(=O)Nc1ccc2nc(C3=NC(C(=O)NCCCOc4ccc5nc(C#N)ccc5c4)CS3)sc2c1.[Gd+3] (centres unmarked) [probe 15] (Ac-DEVDC(SEt)K(DOTA)[X1]-X2; configuration not given here)
lowest caspase-3 concentration detected by T1 value measurements (caspase-3 [2]): 5 nM
